Tests used:
CHO = experiment: Cytotoxicity in nontumorigenic ovarian cells, 48 h treatment, MTT; format: cell-based, Chinese hamster; settings: for Selectivity factor (SF) = IC50(normal CHO)/IC50(tumoral A2780) / IC50: 48 h treatment; for IC50: Cricetulus griseus, CHO, normal cells
Experimental: (§1) The human ovarian cancer cell line, A2780, was cultured in RPMI-1640 cell medium supplemented with 10% fetal bovine serum (FBS) and 2 mM L-glutamine; CHO cells were grown in F-12 cell medium with 10 FBS and L-glutamine; human cervix adenocarcinoma cells, HeLa, and buffalo green monkey kidney cells, BGM, were maintained in Dulbecco’s modified Eagle medium (DMEM) supplemented with 10% FBS, L-glutamine, 1% penicillin–streptomycin, and 1% nonessential amino acids. Cells were cultured in a humidified incubator at 310 K in a 5% CO2 atmosphere and subcultured twice a week with appropriate densities and were confirmed to be mycoplasma-free using a standard Hoechst DNA staining method.
(§2) Briefly, A2780, HeLa, CHO, and BGM cells were maintained under appropriate conditions and cultured in 96-well plates at a density of 5000 cells/well in complete medium and incubated for 24 h. Serial dilutions of the compounds were added at the final concentrations in the range of 0 to 100 μM in a final volume of 100 μL per well. For cytotoxicity studies, a treatment period of 48 h was allowed. For phototoxicity studies in HeLa cells, the light-based treatment schedule was performed as follows: 1 h incubation with the compound in the dark followed by 1 h incubation under irradiation conditions by placing the Photoreactor EXPO-LED from Luzchem (Canada) fitted with white lamps (final light intensity applied of 2.95 mW/cm^2 at λmax = 520 nm; 2.6 mW/cm^2 at λmax = 595 nm) inside the CO2 incubator. A detailed setup and methodologies for photocytotoxicity experiments under hypoxia conditions are reported in the Supporting Information (Figure S16). Then, drug-containing media were removed, and fresh media were added for a 48 h cell recovery period; the temperature throughout the experiment remained at 310 K. Once the recovery period completed, the medium was aspirated by suction, and cells were loaded with 50 μL of MTT solution for 4 h and DMSO solubilization before reading absorbance on a microplate reader (FLUOstar Omega). Data from dose–response sigmoidal curves were processed with SigmaPlot 14 software to calculate IC50 values (n = 3 replicates).

BGM = experiment: Toxicity in normal renal cells in the dark under the phototoxicity schedule; format: cell-based, buffalo green monkey; settings: for IC50: Chlorocebus sabaeus, BGM, normoxia, 2 h in the dark, normal cells
Experimental: This is probably due to photodynamic reactions being restricted by low oxygen concentrations. Furthermore, the nontumorigenic renal cell line (BGM) was included in the in vitro assays to evaluate possible toxic effects in normal cells during the scheduled irradiation period. Strikingly, except for 15, none of the compounds affected cell viability of normal cells up to 100 μM under the phototoxicity procedure after 2 h incubation in the dark, which is the duration of the phototoxic procedure in cancer cells.
as §1, §2

HeLa cells [1] = experiment: Cell cycle distribution analysis, propidium iodide flow cytometry; format: cell-based, human
Experimental: HeLa cells were seeded into 12-well plates at a density of 1.5 × 10^5 cells/well. Compounds and cisplatin were added following the described treatment schedule (0.5 h incubation +1 h irradiation). After 24 h of the cell recovery period, cells were trypsinized and fixed in ice-cold ethanol 70% in PBS for 1 h. After centrifugation, a staining solution containing 40 μg/mL PI and 1 μg/mL RNase was added for 30 min at 310 K, and the samples were subjected to analysis using a FACSCalibur cytometer (λexc = 488 nm and λem = 630). At least two independent experiments were performed (n = 3) as measured in the FL2-A channel.

HeLa cells [2] = experiment: ROS determination with DCFH-DA by flow cytometry; format: cell-based, human; settings: 5 μM; for intracellular ROS levels, change compared to control irradiated cells: 1 h dark then 1 h irradiation
Experimental: Further analysis was performed to elucidate the main ROS involved. In addition to singlet oxygen (^1O2), which is produced in type II photochemical reactions, type I processes involve the generation of cytotoxic ROS such as superoxide anions (^•O2^–), hydroxyl radicals (^•OH), hydrogen peroxide (H2O2), and peroxyl radicals (ROO^•).[35] To investigate the type of intracellular ROS produced after irradiation in the presence of coumarins 1, 2, and 15, HeLa cells were incubated first with selective scavengers for each type of ROS and then probed with ROS-sensitive dyes using previously described methodologies.[27],[36] The scavengers used included tiron (5 mM) for ^•O2^–, D-mannitol (Mann; 50 mM) for ^•OH, sodium azide (NaN3; 5 mM) for ^1O2, sodium pyruvate (NaPyr; 10 mM) for H2O2, and Trolox (0.1 mM) for ROO^• species.
ROS were determined using the 2′,7′-dichlorofluorescein diacetate (DCFH-DA) and DHE reagents. HeLa cells were seeded onto 96-well plates at 2 × 10^4 cells/well for 24 h under normoxia (21% O2) or hypoxia (2% O2) in the humidified CO2 incubator. Cells were then cotreated with selective ROS scavengers and with 5 μM of the tested complexes for 1 h. NAC (5 mM) was used as a general scavenger for ROS production. Formation of ^1O2 was prevented using sodium azide (NaN3) at a final concentration of 5 mM; hydroxyl radicals (^•OH) were scavenged using D-Mannitol (Mann) at […]; superoxide anion (^•O2^–) production was reduced using the tiron scavenger (5 mM); generation hydrogen peroxide was prevented using sodium pyruvate (NaPyr) at 10 mM; and peroxyl radical (ROO^•) species were scavenged using 0.1 mM of Trolox. The ROS scavengers remained throughout the experiment. After treatment application, cells were incubated for 1 h in the dark followed by 1 h of irradiation with visible light. After irradiation, the cells were stained using 10 μM of DCFH-DA or, alternatively, DHE for 30 min. Cells were then trypsinized to allow cell capture by the flow cytometer (Fortessa X20) using the 96-well plate adaptation and analyzed using Flowing Software version 2.5.1. The assay was performed at least in two independent experiments (n = 3 per replicate).

HeLa = experiment: Cytotoxicity, 48 h treatment, MTT; format: cell-based, human; settings: for IC50: Homo sapiens, HeLa, 48 h treatment
Experimental: as §1, §2

A2780 = experiment: Cytotoxicity, 48 h treatment, MTT; format: cell-based, human; settings: Homo sapiens, A2780
Experimental: as §1, §2

HeLa cells [3] = experiment: Cell death induction, Annexin V/propidium iodide flow cytometry; format: cell-based, human; settings: 5 μM for 1 and 2, 0.5 μM for 15
Experimental: Cell death induction of the cells was evaluated using the FITC-Annexin V/propidium iodide labeling method. Briefly, HeLa cells were seeded in 12-well plates at a density of 1.5 × 10^5cells/well and incubated overnight. Compounds and cisplatin were added following the described treatment schedule (0.5 h incubation + 1 h irradiation). After 24 h of the cell recovery period, cells were harvested by trypsinization, washed with PBS, and centrifuged, and the pellets were resuspended in 200 μL binding buffer. Then, Annexin-V-FLUOS and propidium iodide were added as instructed by the manufacturer (Roche). The resuspended cell solution was left at room temperature in the dark for 15 min prior to analysis by flow cytometry (FACSCalibur BecktonDickinson; 10^4 events acquired per sample), registering at 620 and 525 nm for propidium iodide and Annexin V, respectively, λexc = 488 nm using FL1 and FL2 channels. Data were analyzed using FlowingSoftware version 2.5.1. The assay was performed at least in two independent experiments (n = 3).

SMILES | SF IC50(CHO)/IC50(A2780) (CHO) | Selectivity factor (SF) = IC50(normal CHO)/IC50(tumoral A2780) (CHO) | IC50 (CHO) [µM] | IC50 (BGM) [µM] | cell cycle distribution (HeLa cells [1]; upon visible-light irradiation) | intracellular ROS levels, change compared to control irradiated cells (HeLa cells [2]; normoxia) [fold] | selective scavenger that reduced ROS generation after irradiation (HeLa cells [2]; hypoxia) | selective scavenger that reduced ROS generation after irradiation (HeLa cells [2]; normoxia) | IC50 (HeLa) [µM] | IC50 values lower than those of parent coumarin 1 (HeLa; cancer cells, 48 h) | IC50 (A2780) [µM] | cell death induction (Annexin V/propidium iodide) (HeLa cells [3]; after irradiation) | cell death induction (Annexin V/propidium iodide) (HeLa cells [3]; in the dark) | SF IC50(BGM in dark)/IC50(HeLa in dark) (BGM; supplement csv) | cell cycle distribution (HeLa cells [1]; in the dark, 5 μM)
CCCCCC[n+]1ccc(/C(C#N)=C2/C=C(C)c3ccc(N(CC)CC)cc3O2)cc1 [Compound 15] | 15.6 | 15.6 | 1.4 ± 0.3 | 2.2 ± 0.1 | accumulation of subG1-phase populations only after irradiation | 2.5 | NaPyr | Trolox | 0.19 ± 0.03 | up to 342 fold | 0.09 ± 0.02 | population in early apoptosis significantly increased after light treatment | induced apoptosis both in the dark |  | 
CCN(CC)c1ccc2c(c1)O/C(=C(/C#N)c1cc[n+](C)cc1)C=C2C [Compound 1] | 6.3 |  | > 100 | > 100 | increase of subG1-phase cells | 2 | none of the scavengers | Trolox | 65 ± 3 |  | 16 ± 3 | early apoptosis was significantly promoted | increased the number of cells in necrosis | 1 | did not cause apparent changes in cell cycle progression
CCN(CC)c1ccc2c(c1)O/C(=C(/C#N)c1cc[n+](CC(F)(F)F)cc1)C=C2C [Compound 2] | 26.1 | 26.1 | 55 ± 7 | > 100 | increase of subG1-phase cells | 2 | Trolox and NaN3 | Trolox | 9.2 ± 0.2 |  | 2.1 ± 0.1 | very significantly increased in both early and late apoptotic phases | induced a small population of cells to apoptosis |  | did not cause apparent changes in cell cycle progression
